Key:
[1] = test system: A172; assay: MTT assay, A172; format: cell-based; settings: Homo sapiens, A 172; A172, 24 h of incubation; read-out: IC50 values ± SEM, MTT assay
Method: (§1) Human glioblastoma cell lines (A172 CRL-1620™, U-87 MG HTB-14™, U-118 MG HTB-15™, T98G CRL-1690™) and the mouse astrocyte cell line (C8-D1A CRL-2541™) were obtained from the American Type Culture Collection (ATCC, Manassas, VA, USA). The cell lines were cultured in complete medium: DMEM (Corning, Kennebunk, ME, USA) for C8-D1A and T98G, and EMEM (ATCC, Manassas, VA, USA) for A172, U-87 MG, U118MG. The media were supplemented with 10% foetal bovine serum (Eurx, Gdansk, Poland) and 1% penicillin-streptomycin solution (Corning, Kennebunk, ME, USA). Cells were cultured in cell culture flasks (Sarstedt, Numbrecht, Germany) at 37 °C in 5% CO2. For experiments, cells were washed with phosphate-buffered saline without calcium and magnesium (Corning, Kennebunk, ME, USA) and treated with 0.05% trypsin and 0.02% EDTA (Corning, Kennebunk, ME, USA). Cells were counted using a Sceptre 3.0 cell counter (Merck Millipore, Burlington, MA, USA) prior to seeding into plates. For 6-well plates, 5 x 10^5 cells/mL were seeded, while for 96-well plates (Sarstedt, Numbrecht, Germany), 1 x 10^5 cells/mL were seeded in 100 μL of the medium.
(§2) The cell lines were seeded in 96-well plates and cultured according to the methodology described in the previous section. Cells were then treated with the novel derivatives MM118 and MM119 and the reference compound temozolomide (TMZ) (Sigma-Aldrich, St. Louis, MO, USA) at concentrations of 0.1, 0.25, 0.5, 1.0, 2.5, 5.0, and 10.0 μM for 24 h. The MTT assay was performed using a solution of 3–(4,5-dimethyl-2-thiazolyl)-2,5-diphenyl-2H-tetrazolium bromide (Sigma-Aldrich, St. Louis, MO, USA) at a concentration of 5 mg/mL in phosphate-buffered saline without calcium and magnesium (Corning, Kennebunk, ME, USA). After 24 h incubation with test compounds, 10 μL MTT solution was added to each well, and cells were incubated for another 2 h at 37 °C. The cells were then lysed in 100 μL lysis buffer (25 mM HCl, 2% acetic acid, 3% DMF, and 5% SDS, adjusted to pH 4.7). Absorbance was measured at 570 nm using an Absorbance 96 microplate reader (Byonoy GmbH, Hamburg, Germany).

[2] = test system: caspase 3/7; assay: Caspase 3/7 activation (FAM FLICA), U-87 MG; format: cell-based, human; settings: 1.5 μM, 24 h
Method: (§3) The activity of caspase 1, caspase 3/7, caspase 8, and caspase 9 was evaluated through the utilisation of FAM FLICA Caspase Assays (ImmunoChemistry Technologies, Bloomington, MN, USA), in accordance with the established protocols. Following treatment with the compounds, the cells were collected at a concentration of 1 × 10^6 cells/mL, washed twice with cold PBS, and resuspended in 290 μL of PBS. The subsequent step involved the addition of 10 μL of 30X FLICA solution, followed by incubation at 37 °C in the absence of light for one hour. Then, 2 ml of Apoptosis Wash Buffer was added, and the samples were washed twice. A 300 μL aliquot of each sample was transferred to a BD FACSCanto II flow cytometer (Becton Dickinson Biosciences, San Jose, CA, USA), where 10,000 events per sample were recorded. The resulting data was then analysed using FACSDiva software, version 6.1.3 (BD Biosciences Systems, San Jose, CA, USA).

[3] = test system: U-87 MG; assay: MTT assay, U-87 MG; format: cell-based; settings: Homo sapiens, 24 h of incubation, read-out: IC50 values ± SEM, MTT assay
Method: as §1, §2

[4] = test system: caspase 1; assay: Caspase 1 activation (FAM FLICA), A172; format: cell-based, human; settings: 24 h
Method: (§4) Given the activation of oxidative stress and the occurrence of apoptotic cell death, we decided to verify whether other cell death pathways are triggered. The level of pyroptosis induction of the newly synthesised compounds MM118 and MM119 was determined by assessing the activation of caspase 1. This method facilitates the identification of cells undergoing pyroptosis by detecting the active form of caspase 1, which is a pivotal mediator in the pyroptotic pathway. The tested compounds were analysed on human A172 and U-87 MG glioblastoma multiforme cell lines using concentrations of 1 μM and 1.5 μM for a period of 24 h. […] Conversely, for compound MM119 in line A172, caspase 1 activation was 12.35 ± 2.00% at a concentration of 1 μM and 21.30 ± 1.57% at a concentration of 1.5 μM. For the U-87 MG line, the values were 12.25 ± 2.16% and 24.50 ± 2.11%, respectively.
as §3

[5] = test system: caspase 1; assay: Caspase 1 activation (FAM FLICA), U-87 MG; format: cell-based, human; settings: 24 h
Method: as §4, §3

[6] = test system: U-87 MG; assay: LDH release assay, U-87 MG; format: cell-based, human; settings: 1.5 μM, 24 h
Method: (§5) Analogous to the procedure described in the previous section, A172 and U-87 MG cells were cultured and plated in 96-well plates. The LDH-Cytotoxicity Assay Kit II (ab65393) (Abcam, Cambridge, UK) was used to assess cytotoxicity according to the manufacturer’s protocol. The test compounds MM118 and MM119 and the reference compound temozolomide (TMZ) were added to the cells at a concentration of 1.5 μM. After 24 h of exposure, the medium was collected, centrifuged and 10 μL of each sample was transferred to a new 96-well plate. In the next step, 100 μL of LDH Reaction Mix was added to each well and incubated for 30 min at room temperature. Absorbance was measured at 450 nm using an Absorbance 96 microplate reader (Byonoy GmbH, Hamburg, Germany). Cytotoxicity was calculated according to the formula provided by the manufacturer: Cytotoxicity (%) = ((Test Sample – Low Control)/(High Control – Low Control)) X 100, where Low Control - control without added compound, High Control with added 10 µL Lysis Buffer II.

[7] = test system: C8-D1A; assay: MTT assay, C8-D1A astrocytes; format: cell-based; settings: C8-D1A mouse astrocytes, 24 h of incubation; read-out: IC50 values ± SEM, MTT assay
Method: as §1, §2

[8] = test system: A172; assay: LDH release assay, A172; format: cell-based, human; settings: A172, 1.5 μM, 24 h
Method: as §5

[9] = test system: caspase 8; assay: Caspase 8 activation (FAM FLICA), U-87 MG; format: cell-based, human; settings: 1.5 μM, 24 h
Method: as §3

Structure (SMILES) | IC50 [1] [nM] | Active caspase 3/7 (cell population) [2] | IC50 [3] [nM] | Active caspase 1 (cell population) ([4]; A172, 1.0 μM) [%] | Active caspase 1 (cell population) ([4]; A172, 1.5 μM) | Active caspase 1 (cell population) ([5]; 1.0 μM) [%] | Active caspase 1 (cell population) ([5]; 1.5 μM) | LDH release, cytotoxicity [6] [%] | IC50 [7] [nM] | LDH release, cytotoxicity [8] [%] | Active caspase 8 (cell population) [9]
CCC(CO)NS(=O)(=O)c1ccc(-n2nc(C)c3nc4nnnn4nc32)cc1 (stereo in doubt) [MM118, N-(R)-(1-hydroxy-but-2-yl)-4-[7-methyl-5H-pyrazolo[4,3-e]tetrazolo[1,5-b][1]^,[2]^,[4]triazin-5-yl)]benzenesulfonamide] | 889 ± 243 | 60.08 ± 2.50% | 992 ± 370 | 12.10 ± 1.69 | 20.38 ± 1.75% | 17.15 ± 1.81 | 26.65 ± 2.28% | 24.27 ± 2.74 | 2190 ± 340 | 16.59 ± 1.71 | 73.65 ± 3.76%
Cn1nnc2c(C(N)=O)ncn2c1=O [TMZ, temozolomide, reference compound] | > 10000 | no significant differences | > 10000 |  | no significant differences |  | no significant differences | 1.18 ± 0.25 | > 10000 | −0.61 ± 2.02 | No significant statistical differences
CCC(CO)NS(=O)(=O)c1ccc(-n2nc(C)c3nc4nnnn4nc32)cc1 (stereo in doubt) [MM119, N-(S)-(1-hydroxy-but-2-yl)-4-[7-methyl-5H-pyrazolo[4,3-e]tetrazolo[1,5-b][1]^,[2]^,[4]triazin-5-yl)]benzenesulfonamide] | 1240 ± 386 | 57.48 ± 19.68% | 1190 ± 422 | 12.35 ± 2.00 | 21.30 ± 1.57% | 12.25 ± 2.16 | 24.50 ± 2.11% | 28.02 ± 5.27 | 2250 ± 294 | 13.44 ± 2.87 | 69.15 ± 6.30%

Reference: PMC12679848, “Sulphonamide derivatives with a triazine core as novel inducers of apoptosis and pyroptosis in glioblastoma multiforme cells” (Journal of Enzyme Inhibition and Medicinal Chemistry, 2025)
